Patent US20060008800A1, “Unc-13 in the modulation of neurotransmission and secretion events” (priority 2002, published 2006)
“Also recorded” adds a separate entry of the source.

Key:
hippocampal neurons [1] = assay: α-latrotoxin induced mEPSC/mIPSC activity; type: cell-based, mouse
Protocol: (§1) Microisland culture preparation was performed according to Bekkers and Stevens (1991). The extracellular medium contained (mM): NaCl, 167; KCl, 2.4; HEPES, 10; glucose, 10; CaCl2, 4; MgCl2, 4 (340 mOsm, pH 7.3). Solutions were applied and recordings were performed as described in Rosenmund (1995). To examine synaptically activated currents, experiments were performed using recurrent synapses (autapses) or only single autaptic neuroeses on microisland cultures at room temperature (=24° C.). Pipette solutions included (mM): KCl, 120, or K-Gluconate, 125; HEPES, 10; EGTA, 1; MgCl2, 4.6; Na4ATP, 4; Creatinephosphate, 15; creatinephosphokinase 50 U/ml (320 mOsm, pH 7.3). Wild type and Munc13-1 deficient glutamatergic hippocampal neurons were used to study the characteristics of Munc13-1 and Munc13-1 independent synapses. For these purposes, individual neurons grown on microisland beds of glial cells (Bekkers, 1991) were employed. In this autaptic culture system, where isolated nerve cells make multiple synaptic contacts, so called autapses, with their own dendritic trees, spontaneous transmitter release, release of the readily releasable vesicle pool induced by hypertonic solutions, and action potential evoked release arise from the same synapse population and can be measured readily with patch clamp techniques. Autaptic responses were obtained after brief (1-2 ms) somatic depolarization. This induces an unclamped action potential that is followed by a postsynaptic response with a delay of 2-4 ms. Excitatory, glutamatergic and inhibitory, GABAergic synaptic currents were distinguished by their characteristic pharmacological and kinetic properties. Excitatory glutamatergic cells were mainly characterized because the differential equipment of presynaptic terminals formed by the same axon with Munc13 priming factors is not apparent in GABAergic neurons.
Given that neither action potentials nor hypertonic stimuli successfully evoked synaptic transmission and no mPSCs were detectable in Munc13-1/2 double deficient cells, it is possible that postsynaptic development is impaired in mutant cells. To test this directly, the spider toxin α-latrotoxin was used which allows to partially circumvent the need for priming factors in vesicular release (Augustin, 1999b). […] The average amplitude of these events was 22.7±2.4 pA (FIG. 5B). Both, mEPSC frequency and amplitude values are similar to wild type values (not shown).

[2] = system: Munc13-1 deficient hippocampal neurons; assay: EPSC augmentation following high frequency action potential trains in Munc13-1 deficient, Munc13-2 dependent neurons; type: cell-based, mouse
Calmodulin [3] = biological target: T1, Calmodulin (Rattus norvegicus, UniProt P0DP29); assay: Cosedimentation of Calmodulin from rat brain synaptosome extract with GST fusion proteins; type: binding; settings: for Calmodulin binding in cosedimentation: 15 μg fusion protein, 3 mM Ca
T1 construct: from tissue; host or cells: rat brain synaptosomes, extracted with 1% Igepal
Protocol: GST fusion proteins containing the Calmodulin binding sites of rat Munc13-1 and ubMunc13-2 as well as GST alone were expressed in bacteria, purified and adsorbed onto glutathione beads in equal amounts for subsequent use in cosedimentation assays with rat brain synaptosome extract. Proteins that bound to the immobilized GST fusion proteins were analyzed by SDS-PAGE and immunoblotting with a specific Calmodulin antibody. Calmodulin binds specifically to wt GST-Munc13-1 (445-567) and GST-ubMunc13-2 (372-494). Calmodulin binding is completely abolished by the point mutations in the conserved tryptophanes (Position 1 in the alignment figure x).
Such a tool is a point mutation in a Munc13 protein that abolishes Calmodulin binding. On basis of the evolutionarily conservation of the tryptophane residues (FIG. 22), and since these hydrophobic residues make contact to Calmodulin, we created expression constructs that contain W464R mutation in case of Munc13-1 and a W387R mutation in case of ubMunc13-2. The effect of these mutations on Calmodulin binding was determined in cosedimentation experiments (FIG. 24). GST-tagged fragments of Munc13-1 (aa 445-567) or ubMunc13-2 (aa 372494) were expressed in bacteria and purified according to standard protocols. 15 μg of each expressed fusion protein were used to test for Calmodulin binding from 2 ml of a rat brain synaptosome extract. Rat brain synaptosomes were extracted with Igepal (1%) at a protein concentration of 2 mg/ml in a buffer containing Tris 50 mM pH 8, NaCl 150 mM, EGTA 1 mM and a cocktail of protease inhibitors. The cosedimentation experiment was performed as described prebviously (Betz, Neuron 30 […] 183-196).

Calmodulin [4] = biological target: Calmodulin (Homo sapiens, UniProt P0DP23); assay: Tryptophane fluorescence emission of peptides as reporter for Calmodulin binding; settings: 10 μM peptide; for binding of Ca^2+/Calmodulin: excess calcium
Protocol: FIG. 23: Tryptophane fluorescence emission spectra of peptides reflecting the Calmodulin binding site of rat Munc13-1 and ubMunc13-2. 10 μM of each peptide were measured in NH4Acetate 0.25 M, 1 mM EGTA. Excitation was at 290 nm.
The Excitation shutter was adjusted to 1 nm bandwith, the emission shutter to 8 nm bandwidth. Pathlenght was 3 mm. All measurements were carried out at room temperature. The exact sequences of each peptide are given in the text. […] In case of the Munc13-1 peptide, Calcium independent binding is also observed, while the binding of Munc13-2 peptides strictly requires Ca2+ for binding.
The tryptophane fluorescence of the peptides was used as a reporter for Calmodulin binding in an experimental setup that was essentially identical to the experiments described elsewhere. (O'Neil et al.). Excitation of 10 μM solutions of the peptides in 0.25 M NH4Acetate pH 8 and 1 mM EGTA at 290 nm (bandwidth 1 nm) produced a maximum in the emission (bandwidth 8 nm) of both peptides at 355 nm. […] The same experiment was performed with the peptide derived of ubMunc13-2. […] In view of the evolutionarily conservation of the motif, other members of the protein family are likely to be Calmodulin targets, too.

hippocampal neurons [5] = assay: β-phorbol ester induced potentiation of evoked synaptic currents in autaptic neuron cultures (patch clamp); type: cell-based, mouse; settings: for effect of PKC inhibitor on β-PE induced increase/potentiation of evoked EPSCs: 3 μM inhibitor, 1 μM PDBU
Protocol: as §1
Design of and infection with Semliki Forest Virus was done according to published procedures (Betz, 2001; Ashery, 2000). Cells were measured 22-26 h after infection.
Routinely, cells from Munc13-1^H567K/Munc13-1^H567K mutants were analyzed 12-20 day after plating and compared to wild type control cells obtained from littermates. In some experiments we employed Munc13-1/Munc13-2 double deficient neurons as model cells to study the characteristics of the Munc13-1^H567K variant in comparison to wild type Munc13-1 following overexpression using the Semliki-Forest-Virus system. In contrast to Munc13-1 deficient glutamatergic hippocampal neurons, which still show measurable glutamate release (10% of wild type levels; Augustin, 1999b), double homozygous Munc13-1/Munc13-2 deletion mutant neurons are characterized by a complete lack of spontaneous and evoked transmitter release but can be rescued by reintroduction of Munc13 proteins. This rescue approach was persued in Munc13-1/Munc13-2 double mutant neurons instead of breeding the Munc13-1^H567K/Munc 3-1^H567K mutation into the Munc13-2 deletion mutant background because it was much faster and allowed the direct comparison of additional mutant (Betz, 2001) and wild type Munc13-1 variants in the same cultures. Autaptic responses were obtained after brief (1-2 ms) somatic depolarization. This induces an unclamped action potential that is followed by a postsynaptic response with a delay of 2-4 ms. Excitatory, glutamatergic synaptic currents were identified by their characteristic pharmacological and kinetic properties.

[6] = cocktail of phosphatase inhibitors: cypermethrin 1 nM, calyculin A 10 μM, cyclosporine A 1 μM
[7] = 1 nM, Munc13-1/2 double deficient neurons

## NS(=O)(=O)c1cccc2c1c([N+](=O)[O-])cc1nc(O)c(O)nc12 [NBQX]
Hippocampal neurons [1]; Munc13-2 deficient and Munc13-1/2 double deficient neurons
  effect on α-latrotoxin induced mEPSC signals: blocked

## COC[C@@H]([C@H](O)[C@H](O)C(=O)NCC[C@H](C)c1nc(/C=C/C[C@@H]2O[C@]3(C[C@@H](O)[C@@H]2C)O[C@H]([C@H](C[C@H](O)[C@H](C)[C@H](O)[C@H](C)/C=C(C)/C(C)=C/C=C/C(C)=C\C#N)OC)[C@H](OP(=O)(O)O)C3(C)C)co1)N(C)C [calyculin A]
[2]; [6]
  effect on augmentation: did not alter augmentation
[2]; cocktail of phosphatase inhibitors: cypermethrin 1 nM, calyculin A 10 μM, cyclosporine A 1 μM, listed as calyculinA
  effect on augmentation: ineffective in blocking augmentation

## GSTubMunc13-2 (aa 372-494): GST-tagged fragment of rat ubMunc13-2 (aa 372-494) containing the Calmodulin binding site, expressed in bacteria
Calmodulin [3]
  Calmodulin binding in cosedimentation: robustly bound

## crakanwlrafnkvrmqlqear (CRAKANWLRAFNKVRMQLQEAR) [Munc13-1 derived peptide]
Calmodulin [4]
  calcium dependence of Calmodulin binding: partially Ca2+ independent binding
  binding of Ca^2+/Calmodulin: tighter binding
Calmodulin [4]; equimolar Apocalmodulin, 1 mM EGTA
  emission spectrum change on addition of Apocalmodulin (Calcium-free Calmodulin): pronounced blue shift and slight intensity increase

## C=C1[C@@H](O)[C@@H]2O[C@]3(CC[C@H](/C=C/[C@@H](C)[C@@H]4CC(C)=C[C@@]5(O[C@H](C[C@@](C)(O)C(=O)O)CC[C@H]5O)O4)O3)CC[C@H]2O[C@@H]1[C@@H](O)C[C@H](C)[C@H]1O[C@@]2(CCCCO2)CC[C@H]1C [okadaic acid]
[2]; 1 μM, alone
  effect on augmentation: unable to block augmentation; also recorded: did not alter augmentation

## C/C1=C/C(=O)O[C@@H]2C[C@@H](CC[C@H](C)/C=C\CC1)O[C@@](O)([C@@H]1CSC(=O)N1)C2 [latrunculin B]
[2]; 10 μM
  effect on augmentation: ineffective in blocking augmentation; also recorded: failed to affect augmentation

## GSTMunc13-1 (aa 445-567): GST-tagged fragment of rat Munc13-1 (aa 445-567) containing the Calmodulin binding site, expressed in bacteria
Calmodulin [3]
  calcium dependence of Calmodulin binding in cosedimentation: partially independent of Ca^2+
  Calmodulin binding in cosedimentation: robustly bound

## α-latrotoxin
Hippocampal neurons [1]; [7]
  mEPSC amplitude: 25.6±2.6 pA
  mEPSC-like event frequency: 0.074±0.024 Hz
Hippocampal neurons [1]; 1 nM, Munc13-2 single mutant control neurons
  average mEPSC amplitude: 22.7±2.4 pA
Hippocampal neurons [1]; five minutes following 60 s application of 1 nM, Munc13-2 single mutant control neurons
  mEPSC frequency: 23.4±3.9 Hz

## cqarahwfravtkvrlqlqeis (CQARAHWFRAVTKVRLQLQEIS) [peptide derived of ubMunc13-2]
Calmodulin [4]
  calcium dependence of Calmodulin binding: absolutely dependent on the presence of calcium
  binding of Ca^2+/Calmodulin: bound

## CC(=O)OCOC(=O)CN(CCOCCOCCN(CC(=O)OCOC(C)=O)CC(=O)OCOC(C)=O)CC(=O)OCOC(C)=O [EGTA-AM]
[2]; 10 Hz train, pretreatment 50 μM, 20 min
  EPSC augmentation: 2.0±0.4 fold
[2]; 40 Hz train, pretreatment 50 μM, 20 min
  maximal EPSC augmentation: 11.0±1.5 fold
[2]; frequencies below 40 Hz, pretreatment 50 μM, 20 min
  augmentation in frequency-augmentation profile: strongly reduced

## COc1ccc2c(c1)c(C1=C(c3c[nH]c4ccccc34)C(=O)NC1=O)cn2CCCN(C)C [GÖ 6983]
Hippocampal neurons [5]; 1 μM PDBU after preincubation for 2 min and in the presence of 3 μM GÖ 6983, wild type neurons
  β-PE induced increase in evoked EPSCs: 150±6 % of baseline values
Hippocampal neurons [5]; wild type neurons
  effect of PKC inhibitor on β-PE induced increase/potentiation of evoked EPSCs: had no effect

## CC1(C)C(C=C(Cl)Cl)C1C(=O)OC(C#N)c1cccc(Oc2ccccc2)c1 (stereo not drawn) [cypermethrin]
[2]; [6]
  effect on augmentation: ineffective in blocking augmentation; also recorded: did not alter augmentation

## CN[C@@H]1C[C@H]2O[C@@](C)([C@@H]1OC)n1c3ccccc3c3c4c(c5c6ccccc6n2c5c31)C(=O)NC4 [staurosporine]
[2]; 100 nM
  effect on augmentation: failed to suppress augmentation

## CN(C)CCCn1cc(C2=C(c3c[nH]c4ccccc34)C(=O)NC2=O)c2ccccc21 [bisindolylmaleimide I]
Hippocampal neurons [5]
  potentiation of evoked EPSCs by 1 μM PDBU after bisindolylmaleimide I pretreatment: 73±8.3%
Hippocampal neurons [5]; wild type neurons
  effect of PKC inhibitor on β-PE induced increase/potentiation of evoked EPSCs: does not prevent
Hippocampal neurons [5]; 3 μM, four minute application period, wild type neurons
  reduction of evoked EPSC responses (rundown): 41±11%
